Source: patent publication US9085786B2, “Process for the production of polyamines” (BASF SE, priority 2009, dated 2015)

T1: AOX (alcohol oxidase) (Komagataella phaffii, UniProt P04842)
T1 sequence (P04842 1-663): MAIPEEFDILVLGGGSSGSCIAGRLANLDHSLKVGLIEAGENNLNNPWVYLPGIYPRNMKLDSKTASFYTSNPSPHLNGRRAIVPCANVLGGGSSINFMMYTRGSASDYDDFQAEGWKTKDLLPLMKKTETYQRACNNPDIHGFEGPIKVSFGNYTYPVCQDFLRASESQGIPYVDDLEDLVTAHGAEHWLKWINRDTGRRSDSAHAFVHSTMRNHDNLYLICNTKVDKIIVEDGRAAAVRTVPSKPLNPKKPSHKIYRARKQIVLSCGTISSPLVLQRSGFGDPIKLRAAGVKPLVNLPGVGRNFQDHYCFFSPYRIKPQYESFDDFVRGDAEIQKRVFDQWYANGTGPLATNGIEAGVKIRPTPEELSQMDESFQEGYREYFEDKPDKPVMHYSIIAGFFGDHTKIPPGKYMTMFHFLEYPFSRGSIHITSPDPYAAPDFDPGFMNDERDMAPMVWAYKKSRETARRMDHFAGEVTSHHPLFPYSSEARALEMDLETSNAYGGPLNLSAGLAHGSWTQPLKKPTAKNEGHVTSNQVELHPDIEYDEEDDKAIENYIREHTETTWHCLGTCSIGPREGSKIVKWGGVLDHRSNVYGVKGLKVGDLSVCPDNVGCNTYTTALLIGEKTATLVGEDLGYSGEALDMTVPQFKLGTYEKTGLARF

B1: AOX (alcohol oxidase) (Komagataella phaffii GS115) (protein)
chain: T1 sequence (P04842 1-663)

Experiments:
[1] = biological target: T1, AOX (alcohol oxidase); format: biochemical; details: for Relative activity / Vmax: pH 7.0, 100 mM MOPS-buffer; for Relative activity: ethanol = 100; for Vmax: compound as substrate
Source text: In the AOX approach cofactor regeneration is not required. The reaction is further driven by the Catalase-catalyzed decomposition of hydrogen peroxide. […]
The enzyme was obtained from commercially available from Sigma Aldrich.
Reaction followed […] preference of one enantiomer over the other as substrate, as defined by the division of the specificity constants. The specificity constant is defined as kcat/Km.

[2] = test system: HLADH (Horse Liver Alcohol Dehydrogenase); test: Kinetic constants for HLADH, spectrophotometric assay of NADH formation at 340 nm; format: biochemical, Equus caballus; details: for Vmax / Relative activity / Km: pH 9.1, 100 mM CHES-buffer; for Vmax / Km: compound as substrate; for Relative activity: ethanol = 100; for E-value: pH 9.1, preference of one enantiomer over the other, ratio of specificity constants kcat/Km
Source text: In the HLADH approach cofactor regeneration is accomplished by the use of vinyl acetate. Vinyl acetate rapidly hydrolyzes at pH 9.1, decomposing into acetic acid and acetic aldehyde. The aldehyde can be reduced by HLADH into ethanol, thereby forming NAD^+ from NADH. Unreacted acetic aldehyde can be removed by bubbling N2 after deactivating the enzyme with EDTA or H2O2. For the alcohol dehydrogenase HLADH the reaction was spectrophotometrically followed by the formation of NADH at 340 nm. Different concentrations of the various amino alcohols were used to obtain the Michaelis-Menten kinetic constants.
This reaction was performed at pH 9.1. The enzyme was obtained from commercially available from Sigma Aldrich.
Reaction catalysed by HLADH was followed spectrophotometrically at 340 nm, by the formation of NADH.

[3] = substrate: CCO; test: purified protein, by the assay type; details: other: AOX, pH 7.0, 100 mM MOPS-buffer, compound as substrate

Molecule | Relative activity [1] [%] | Vmax [2] [µmol/min/mg] | Relative activity [2] [%] | Catalysis of the reaction and appearance of aldehyde ([1]; ABTS replaced by pyrogallol or purpald, rates not reproducible) | Vmax [1] | Km [2] [mM] | E-value [2] | E-value ([1]; pH 7.0, preference of one enantiomer over the other, ratio of specificity constants kcat/Km) | Km [3] [mM] | Vmax [3] [µmol/min/mg]
CC(O)CN (racemic) [1-Amino-propan-2-ol (rac), 1-Amino-propan-2-ol] | 0 | 0 | 0 |  |  |  |  |  |  | 
NCC(O)c1ccccc1 (stereo not drawn) [2-Amino-1-phenyl ethanol] |  |  |  | the enzyme was catalysing the reaction and the appearance of aldehyde |  |  |  |  |  | 
NCCO [2-Amino-ethanol] | ~0 | <0.005 | ~0 |  | Very low |  |  |  |  | 
NCCCO [3-Amino-propan-1-ol] | 0.18 | 0.17 | 11 |  | 0.021 µmol/min/mg | 13 |  |  |  | 
CCO [Ethanol, reference compound] | 100 | 1.5 | 100 |  |  | 0.6 |  |  |  | 
NC[C@H](O)c1ccccc1 [R-2-Amino-1-phenyl-ethanol] |  | <0.002 | ~0 |  |  |  | >100 |  |  | 
C[C@@H](N)CO [R-2-Amino-propan-1-ol] | 0.88 | <0.0007 | ~0 |  | 0.10 µmol/min/mg |  | >300 | 3.6 |  | 
NC[C@@H](O)c1ccccc1 [S-2-Amino-1-phenyl-ethanol] |  | 0.21 | 14 |  |  | 6.2 |  |  |  | 
C[C@H](N)CO [S-2-Amino-propan-1-ol] | 3.2 | 0.21 | 14 |  | 0.37 µmol/min/mg | 6.3 |  |  |  | 
B1 |  |  |  |  |  |  |  |  | 1.3 | 12
